Measurements from ChEMBL document CHEMBL4033694, “Synthesis, antimycobacterial activity and docking study of 2-aroyl-[1]benzopyrano[4,3-c]pyrazol-4(1H)-one derivatives and related hydrazide-hydrazones” (Bioorg Med Chem Lett, 2017).
pIC50: −log10 of the molar value. In brackets after ≈: the same amount, converted by molar mass. Counter-ions that a name gives are not always drawn.

Tests used:
[1] = Stability of the compound in DMSO-d6 solvent measured every 8 hrs for 12 days by 1H NMR spectra analysis; type: physicochemical; conditions: 288 h
[2] = Stability of the compound in DMSO-d6 solvent/middlebrook 7H9 broth media after 16 hrs by 1H NMR spectra analysis; type: physicochemical
[3] = Thermal stability of the compound in DMSO-d6 solvent at 37 degC by 1H NMR spectra analysis; type: physicochemical
[4] = Solubility of the compound in MeOH; type: physicochemical
[5] = Solubility of the compound in EtOH; type: physicochemical
[6] = Solubility of the compound in CHCl3; type: physicochemical
[7] = Solubility of the compound in H2O; type: physicochemical
[8] = system: Mycobacterium tuberculosis; experiment: Antimicrobial activity against Mycobacterium tuberculosis H37Rv after 7 days by resazurin microtiter assay; type: functional; conditions: 168 h
HEK-293T = experiment: Cytotoxicity against HEK293T cells after 72 hrs by MTT assay; type: cell-based; conditions: Homo sapiens
[9] = Selectivity index, ratio of IC50 for HEK293T cells to MIC for Mycobacterium tuberculosis H37Rv; type: toxicity; conditions: human, read-out: Selectivity Index

Compound | Stability [1] | Stability [2] | Stability [3] | solubility [4] | solubility [5] | solubility [6] | solubility [7] | MIC [8] | pIC50 (HEK-293T) | selectivity ratio [9]
CN(C)c1ccc(C(=O)n2cc3c(=O)oc4ccccc4c3n2)cc1 | Stable | Stable | Stable | Insoluble | Insoluble | Insoluble | Insoluble | 0.59 µM (≈ 0.197 µg/mL) | < 3.70 | > 408
O=C(c1ccc(O)cc1)n1cc2c(=O)oc3ccccc3c2n1 |  |  |  |  |  |  |  | 0.32 µM (≈ 0.098 µg/mL) | < 3.70 | > 625
COc1ccc(C(=O)N/N=C/c2c(Cl)c3ccccc3oc2=O)cc1 | Stable | Stable | Stable | Insoluble | Insoluble | Insoluble | Insoluble | 0.28 µM (≈ 0.0999 µg/mL) | 3.95 | 403
O=C(N/N=C/c1c(Cl)c2ccccc2oc1=O)c1ccc(O)cc1O |  |  |  |  |  |  |  | 0.56 µM (≈ 0.201 µg/mL) |  | 
O=C(N/N=C/c1c(Cl)c2ccccc2oc1=O)c1ccc(Cl)cc1 | Stable | Stable | Stable | Insoluble | Insoluble | Insoluble | Insoluble | 0.55 µM (≈ 0.199 µg/mL) | 4.68 | 33
COc1ccc(C(=O)n2cc3c(=O)oc4ccccc4c3n2)cc1 | Stable | Stable | Stable | Insoluble | Insoluble | Insoluble | Insoluble | 0.62 µM (≈ 0.199 µg/mL) | < 3.70 | > 645
O=C(c1ccc(O)cc1O)n1cc2c(=O)oc3ccccc3c2n1 | Stable | Stable | Stable | Insoluble | Insoluble | Insoluble | Insoluble | 0.62 µM (≈ 0.2 µg/mL) | < 3.70 | > 308
CN(C)c1ccc(C(=O)N/N=C/c2c(Cl)c3ccccc3oc2=O)cc1 | Stable | Stable | Stable | Insoluble | Insoluble | Insoluble | Insoluble | 0.54 µM (≈ 0.2 µg/mL) | 4.73 | 20
O=C(c1ccco1)n1cc2c(=O)oc3ccccc3c2n1 |  |  |  |  |  |  |  | 0.72 µM (≈ 0.202 µg/mL) | < 3.70 | > 282
Cc1occc1C(=O)n1cc2c(=O)oc3ccccc3c2n1 |  |  |  |  |  |  |  | 1.69 µM (≈ 0.497 µg/mL) | < 3.70 | > 119
O=C(N/N=C/c1c(Cl)c2ccccc2oc1=O)c1ccco1 | Stable | Stable | Stable | Insoluble | Insoluble | Insoluble | Insoluble | 0.63 µM (≈ 0.2 µg/mL) | 4.20 | 236
CC[C@@H](CO)NCCN[C@@H](CC)CO [ETHAMBUTOL HYDROCHLORIDE] |  |  |  |  |  |  |  | 1.46 µM |  | 
NNC(=O)c1ccncc1 [ISONIAZID] |  |  |  |  |  |  |  | 0.79 µM (≈ 0.108 µg/mL) |  | 
